One experiment deals with THP-1 cells. On the set-up: method as in PMID 35525212. Conditions: read-out: IC50, antiproliferative activity; cited from earlier work.
The next experiment has as its system H3K4me1/2. Conditions: cited from earlier work.
Another experiment has as its system glioblastoma cells. On the set-up: method as in PMID 29683097. Conditions: cited from earlier work.
Experiment [1] has as its system diffuse large B-cell lymphoma cells. On the set-up: method as in PMID 26002965. Conditions: cited from earlier work.
The subject of a further experiment is HepG2. On the set-up: method as in earlier work. As to conditions: HepG2 cell line; read-out: IC50, antiproliferative activity; cited from earlier work.
In another experiment the test system is PC3. On the set-up: method as in earlier work. As to conditions: PC3 cell line; read-out: IC50, antiproliferative activity; cited from earlier work.
In a further experiment the test system is MCF-7. Conditions: read-out: IC50, antiproliferative activity, cited from earlier work.
The subject of another experiment is MOLP-8 cells. On the set-up: method as in PMID 36476642. Conditions: myeloma MOLP-8 cells; read-out: IC50, antiproliferative activity; cited from earlier work.
The subject of a further experiment is KMS-12-PE cells. On the set-up: method as in PMID 36476642. As to conditions: myeloma KMS-12-PE cells; read-out: IC50, antiproliferative activity; cited from earlier work.
For a further experiment, the system named is HCT-116 cells. On the set-up: method as in PMID 33773285. Conditions: read-out: IC50, antiproliferative activity; cited from earlier work.
A further experiment deals with ovarian cancer cells. On the set-up: method as in PMID 31264855. Conditions: cited from earlier work.
A further experiment deals with ACHN cells. On the set-up: method as in PMID 33527838. Conditions: cited from earlier work.
Experiment [2] relates to HepG2 cells. Kind of experiment: Xenograft study, HepG2 cells in nude mice. Type of experiment: in vivo, BALB/c nude mice. Conditions: 10 mg/kg by gavage every day for 21 days, nude mice bearing HepG2 cells. The protocol:
Tumorigenesis in nude mice could stimulate the growth process of human tumours in the body, and could be used to develop and evaluate the effectiveness and safety of anti-cancer candidates. Therefore, xenograft studies in nude mice were performed to evaluate anticancer effects of compound 14. Animals were treated according to the protocols established by the ethics committee of The Fourth Clinical College of Xinxiang Medical University. The in vivo experiments were carried out in accordance with the approved guidelines and approved by the ethics committee of The Fourth Clinical College of Xinxiang Medical University. The number of ethics approvals is XMU-2024–01-03. All authors have adhered to the ARRIVE guidelines (https://arriveguidelines.org/). BALB/c nude mice were purchased from Beijing Huafukang Biotechnology Co., LTD (Beijing, China), and fifteen mice were used in this study (aged 6–7 weeks and weighing 20–30 g). Before the animal experiments, all nude mice were given a week to adjust to the clean, hygienic and specific-pathogen-free environment. All nude mice were taken care of instainless steel cages with a constant temperature of 60% humidity, 25 °C and a 12/12 light/dark cycle. Nude mice were fed with refreshing water and nourishing food everyday.
Then, nude mice were anaesthetised with 2% isoflurane and 0.3 l/min of oxygen by the small animal anaesthesia machine (Beijing Yi Zejia Technology Co., LTD, Beijing, China). 3 × 10^5 human liver cancer HepG2 cells were subcutaneously injected in the right armpit of mice. Until the volume of tumours reached 60–100 mm^3, all mice were randomly divided into three groups and each group had five nude mice. An amount of 60 mg/kg of compound 14, 10 mg/kg of seclidemstat and water as the control group were given by gavage every day for 21 days. Weight of mice and tumour volume were measured every 3 d. All nude mice in this xenograft studies were performed euthanizing procedures using a carbon dioxide euthanasia chamber (Shanghai Yuyan Instruments Co., Ltd, Shanghai, China). The flow rate of carbon dioxide was adjusted at 20% of the volume of the euthanasia chamber per minute. Once nude mice were unconscious, the flow rate was increased to 100% of the euthanasia chamber volume per minute. Death was confirmed by immobility, non-breathing and pupil enlargement. Tumours form BALB/c nude mice were isolated and weighed.

Experiment [3] has as its target T1, LSD1 (Homo sapiens, UniProt O60341). Kind of experiment: LSD1 screening assay kit (enzymatic activity). Type of experiment: biochemical. On the set-up: purchased Cayman Chemical (Ann Arbor, MI). Conditions: fluorescence, read-out: IC50 against LSD1. On the procedure: After the incubation for 30 min at 37 °C, a mixture of horseradish peroxidase solution (20 μl) and fluorometric substrate solution (10 μl) was added to each well. Then, the 96-well plate was incubated for 15 min at 37 °C. Finally, the fluorescence of each well in the 96-well plate was measured at an emission wavelength of 590 nm and an excitation wavelength of 530 nm by a fluorimeter (Agilent Technologies Inc., Palo Alto, CA). Seclidemstat, a famous LSD1 inhibitor, was used as the control drug in this assay.

For another experiment, the system named is NB cells. On the set-up: method as in PMID 36223680. As to conditions: cited from earlier work.
For experiment [4], the target named is T1, LSD1. On the set-up: purchased Cayman Chemical (Ann Arbor, MI). Conditions: cited from earlier work.
Another experiment relates to C42B cells. Kind of experiment: CCK8 assay, C42B prostate cancer cells. Type of experiment: cell-based. As to conditions: Homo sapiens, CCK8, control drug, read-out: IC50, antiproliferative activity. The protocol:
(§1) C42B, PC3, Caco-2, HepG2, MCF7, HL-60, 8505 C, OVCAR-3, and A549 were cultured to screen the broad-spectrum antiproliferative activity of compound 14. For above cell lines, three thousand cells per well were seeded in the 96-well plate and treated by compound 14 for 48 or 72 h at different concentrations (0, 5, 10, and 20 μM). In addition, HepG2, HEP3B, HUH6, and HUH7 were cultured to screen its antiproliferative activity against liver cancer cell lines. For these liver cancer cell lines, two thousand cells per well were seeded in the 96-well plate and treated by compound 14 for 48 h at different concentrations (0, 0.625, 1.25, 2.5, and 5 μM). Then, 10 μl of CCK8 was added into each well and cells were incubated in a humidified atmosphere of 5% CO2 at 37 °C for 4 h. The 96-well plate was measured with a microplate reader (Bio-Tek, San Diego, CA) at a wavelength of 450 nm to calculate IC50 values.

A further experiment has as its system PC3 cells. The experiment can be described thus: CCK8 assay, PC3 prostate cancer cells. Conditions: Homo sapiens, PC-3, CCK8, control drug, read-out: IC50, antiproliferative activity. Type of experiment: cell-based. The protocol:
as §1
(Tetrazolium dyes change colour on reduction, which living cells bring about.)

The subject of the next experiment is Caco-2 cells. The experiment can be described thus: CCK8 assay, Caco-2 colon cancer cells. Format: cell-based. Conditions: Homo sapiens, CCK8, control drug, read-out: IC50, antiproliferative activity. On the procedure: as §1
The test system of experiment [5] is HepG2 cells. Kind of experiment: CCK8 assay, HepG2 liver cancer cells. As to conditions: Homo sapiens, CCK8, control drug, read-out: IC50, antiproliferative activity. Type of experiment: cell-based. On the procedure: as §1
The next experiment has as its system MCF7 cells. The experiment can be described thus: CCK8 assay, MCF7 breast cancer cells. Type of experiment: cell-based. Conditions: Homo sapiens, CCK8, control drug, read-out: IC50, antiproliferative activity. The protocol: as §1
Another experiment has as its system HL-60 cells. Kind of experiment: CCK8 assay, HL-60 leukaemia cells. Format: cell-based. Conditions: Homo sapiens, CCK8, control drug, read-out: IC50, antiproliferative activity. On the procedure: as §1
Another experiment deals with 8505 C cells. The experiment can be described thus: CCK8 assay, 8505 C thyroid cancer cells. Format: cell-based. Conditions: Homo sapiens, CCK8, control drug, read-out: IC50, antiproliferative activity. The protocol:
as §1

A further experiment relates to OVCAR-3 cells. Kind of experiment: CCK8 assay, OVCAR-3 ovarian cancer cells. As to conditions: Homo sapiens, CCK8, control drug, read-out: IC50, antiproliferative activity. Format: cell-based. The protocol: as §1
A further experiment deals with A549 cells. Kind of experiment: CCK8 assay, A549 lung cancer cells. As to conditions: Homo sapiens, CCK8, control drug, read-out: IC50, antiproliferative activity. Type of experiment: cell-based. The protocol:
as §1

Another experiment relates to various cell lines. On the set-up: method as in PMID 26890117. As to conditions: cited from earlier work.

Read-outs that look alike come from different tables or passages of the source.

One may read the IC50 as the concentration that inhibits the measured activity by half. `COc1cc2nc(NCCCN(C)C)nc(NC3CCN(Cc4ccc5ccccc5c4)CC3)c2cc1OC` [Compound 2]: the IC50 in the experiment on THP-1 cells was 300 nM. Moreover, the “expression levels of H3K4me2” value in the experiment on H3K4me1/2 is recorded as “increases the expression levels of H3K4me2”.

Consider `CCCCCCCCCCCCSC(=O)CC1CC(=O)NC(=O)C1` [Compound 7], for which, in the experiment on glioblastoma cells, the “cell cycle and clonogenic capacity” value was “induces cell cycle arrest and reduces clonogenic capacity”.

Consider `Cc1nc2cccc(N)c2c(=O)n1C1CCC(=O)NC1=O` (stereo not shown) [Compound 9], for which the apoptosis and proliferation entry in experiment [1] was “induces apoptosis and inhibits proliferation”.

In the case of `O=C1CCC(NC(=O)CSc2nnc3c(=O)[nH]c4ccccc4n23)C(=O)N1` (stereo not shown) [Compound 8], the 50% inhibitory concentration (IC50) is 9.81 µM with HepG2, 15.5 µM with PC3 and 10.1 µM in the experiment with MCF-7 (MCF-7 cell line).

Consider `O=C1CCC(CS(=O)(=O)Cc2ccccc2)C(=O)N1` (stereo not shown) [Compound 10], for which the results for the IC50 in the experiment on MOLP-8 cells and with KMS-12-PE cells were 5.52 µM and 5.17 µM, respectively.

On to `Cc1ccc(S(=O)(=O)CCC(=O)Nc2ccc(S(N)(=O)=O)cc2)cc1` [Compound 11], for which the IC50 was 0.67 µM with MCF-7 (MCF-7 cells) and 570 nM in the experiment on HCT-116 cells.

As to `COc1cccc(-c2cccc(NC(=O)CCc3cccc4c3B(O)OC4)c2)c1` [Compound 12], in the experiment with ovarian cancer cells, the “colony formation and apoptosis” value was “significantly inhibits colony formation and induces apoptosis”.

On to `O=C(c1ccc(OCCN2CCCCC2)cc1)c1c(-c2ccc(O)cc2)sc2cc(O)ccc12` [Raloxifene], for which, in the experiment with ACHN cells, the “migration of ACHN cells” value is “inhibits migration against ACHN cells”.

In the case of `C/C(=N\NC(=O)c1cccc(S(=O)(=O)N2CCN(C)CC2)c1)c1cc(Cl)ccc1O` [Seclidemstat], the “growth of subcutaneous tumours” value in the experiment with HepG2 cells [2] was “inhibited the growth of subcutaneous tumours”. In addition, the IC50 on LSD1 [3] worked out at 20 ± 10 nM.

Regarding `O=S(=O)(Nc1ccc(Br)cc1-c1nn[nH]n1)c1ccc(-c2ccc(Cl)cc2)cc1` [Compound 3], in the experiment on NB cells, the “synergistic effect with bortezomib” value is “displays the synergistic effect against NB cells with bortezomib”.

`COc1ccc(CN(C(=O)CSC(=S)N2CCN(c3ccc(N)cc3)CC2)c2cc(OC)c(OC)c(OC)c2)cc1O` [Compound 6]: the “accumulation of H3K4me1/2” value with H3K4me1/2 is reported as “induces the accumulation of H3K4me1/2”. For the same compound, the LSD1 inhibition entry on LSD1 [4] is listed as “inhibits LSD1”.

Consider `O=c1[nH]cc(F)c(=O)[nH]1` [5-Fluorouracil], for which the IC50 in the experiment on C42B cells was 16.7 µM; with PC3 cells, 12.3 µM; with Caco-2 cells it was greater than 20 µM; with HepG2 cells [5], 9.87 µM; with MCF7 cells, greater than 20 µM; in the experiment with HL-60 cells, 7.25 µM. Besides, the IC50 is 12.4 µM in the experiment on 8505 C cells, greater than 20 µM in the experiment with OVCAR-3 cells and greater than 20 µM in the experiment on A549 cells.

With `COc1cc(NC(=O)CCSc2nc3ccc(Cl)cc3c(=O)n2-c2ccc(F)cc2)cc(OC)c1OC` [Compound 13], in the experiment with various cell lines, the anticancer effects result is “exhibits extensive-spectrum anticancer effects”.

(Values after publication PMC11843658 (Journal of Enzyme Inhibition and Medicinal Chemistry, 2025).)
